We go through two compounds from patent US7468432B2, “Cobalamin conjugates useful as antitumor agents” (Mayo Foundation for Medical Education and Research, priority 1999, dated 2008).

In one series the test system is transcobalamin proteins. As to the kind of experiment: modified unsaturated Vitamin B12 binding capacity (UBBC) assay. The arrangement: species or system human. The settings on record: 0.4 ml patient serum treated with 4 μL analog (10 μg per ml normal saline), 20 minutes at room temperature; blocking of Co-57 cyanocobalamin binding; 5 patients, n=10. The protocol:
In vitro biological activity of the carborane cyanocobalamin analogs. To assess the in vitro binding of the carborane cyanocobalamin (Example 1, CCC) and DTPA-aminopropylcobalamin (Example 3, DAPC) analogs to the transcobalamin proteins, the unsaturated Vitamin B12 binding capacity (UBBC) assay (see D. A. Collins and H. P. C. Hogenkamp, J. Nuclear Medicine, 1997, 38, 717-723) was performed. Serum was obtained from 5 patients being evaluated for pernicious anemia at the Mayo Clinic. The patients' serum first underwent a routine clinical UBBC as previously described. To determine if the CCC and DAPC analogs would inhibit Co-57 cyanocobalamin from binding to the transcobalamin proteins, the excess serum from the 5 patients underwent modified UBBC.
Specifically, under dim light, 0.4 ml serum was treated with 4 μL (concentration 10 μg CCC per ml normal saline) of the 2 CCC analogs, carborane-d-cyano-cobalamin and carborane-b-cyanocobalamin, and DAPC. The analogs were incubated for 20 minutes at room temperature with the patient's serum. Both the clinical run and the analog treated samples were assayed for UBBC as usual.
The percent PB of the analogs to transcobalamin protein was calculated as follows (PB=100−CCCUBBC cpm/clinical UBBC cpm×100). […]

A further series has as its system cells. The settings on record: in vitro neutron radiation of cells grown in the presence of compound; cited from earlier work.
In series [1] the test system is African green monkey (Vero) cells. The settings on record: concentration level of 1600 μM; cited from earlier work.

For DTPA-aminopropylcarbalamin [DAPC], the “average percent binding (PB) of the analogs to transcobalamin protein” value with transcobalamin proteins was 98.21%. Turning to `O=c1[nH]c(=O)n([C@H]2C[C@H](O)[C@@H](CO)O2)cc1B(O)O` [5-dihydroloxyboryl-2′-deoxyuridine], the “biological effect equivalent to a concentration of 10B” value in the series on cells is recorded as approximately 6 μg ^10B/g. Also, the cytotoxicity result in series [1] is reported as “not cytotoxic”.
